# Read-outs that look alike come from different tables or passages of the source.
# What was measured:
# [1] = molecular target: Gal4 DNA binding domain fused to the LBD of LXRα in HEK293 cells (Homo sapiens (Human), UniProt Q13133); experiment: LXR luciferase transcriptional reporter gene assay, agonist mode, LXRα; assay type: cell-based; conditions: for EC50: read-out: Cell LXRα EC50
# [2] = molecular target: LXR α LBD protein (Homo sapiens (Human), UniProt Q13133); experiment: LXR α radioligand binding assay (SPA, competition with [3H]TO901317); conditions: read-out: LXRα Binding Ki
# [3] = molecular target: Gal4 DNA binding domain fused to the LBD of LXRβ in HEK293 cells (Homo sapiens (Human), UniProt P55055); experiment: cell-based
# [4] = molecular target: LXR β LBD protein (Homo sapiens (Human), UniProt P55055); experiment: biochemical; assay type: binding
# Sequence of LXR β LBD protein (P55055 222-460 limits assumed): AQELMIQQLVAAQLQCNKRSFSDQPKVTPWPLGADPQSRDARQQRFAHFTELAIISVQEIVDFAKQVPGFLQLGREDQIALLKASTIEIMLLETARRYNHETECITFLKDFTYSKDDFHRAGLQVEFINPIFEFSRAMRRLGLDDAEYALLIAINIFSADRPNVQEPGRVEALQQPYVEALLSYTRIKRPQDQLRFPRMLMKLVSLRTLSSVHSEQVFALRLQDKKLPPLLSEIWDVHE
# Sequence of Gal4 DNA binding domain fused to the LBD of LXRα in HEK293 cells (Q13133 209-447): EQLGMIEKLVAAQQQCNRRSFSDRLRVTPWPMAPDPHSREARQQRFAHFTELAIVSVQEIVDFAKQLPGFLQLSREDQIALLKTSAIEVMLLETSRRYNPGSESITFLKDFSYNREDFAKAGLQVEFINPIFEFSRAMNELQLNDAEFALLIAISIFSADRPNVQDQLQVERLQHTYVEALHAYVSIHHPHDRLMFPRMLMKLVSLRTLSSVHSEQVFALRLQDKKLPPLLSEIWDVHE
# Sequence of LXR α LBD protein (Q13133 209-447): as above
# Sequence of Gal4 DNA binding domain fused to the LBD of LXRβ in HEK293 cells (P55055 222-460 limits assumed): as the sequence (P55055 222-460 limits assumed) above
Structure (SMILES),Cell LXRα efficacy [1],EC50 [1],Ki [2],EC50 [3],Cell LXRβ efficacy ([3]; agonist mode),Ki ([4]; read-out: LXRβ Binding Ki),EC50 ([1]; agonist mode),Ki [4],Cell LXRβ efficacy [3]
"CC(C)(O)CC1CN(c2ccc(F)c(S(C)(=O)=O)c2)CCN1c1ccc(C(F)(F)F)cn1 (stereo not shown) [34-1, 1-(4-(4-fluoro-3-(methylsulfonyl)phenyl)-1-(5-(trifluoromethyl)pyridin-2-yl)piperazin-2-yl)-2-methylpropan-2-ol]",2456 (78) %,2460 nM,1240 nM,670 nM,670 (83) %,151 nM,,,
"CC(C)(F)CC1CN(c2ccc(F)c(S(C)(=O)=O)c2)CCN1c1ccc(C(F)(F)F)cn1 (stereo not shown) [35-1, 2-(2-fluoro-2-methylpropyl)-4-(4-fluoro-3-(methylsulfonyl)phenyl)-1-(5-(trifluoromethyl)pyridin-2-yl)piperazine]",1522 (97) %,1520 nM,272 nM,499 nM,499 (88) %,38 nM,,,
"CC(C)[C@@H]1CN(c2cccc(S(C)(=O)=O)c2)CCN1c1ccc(C(F)(F)F)c(C2CC2)n1 [40-4, (R)-1-(6-cyclopropyl-5-(trifluoromethyl)pyridin-2-yl)-2-isopropyl-4-(3-(methylsulfonyl)phenyl)piperazine]",1057 (80) %,1060 nM,14 nM,214 nM,,7 nM,,,
"CC(C)[C@H]1CN(c2ccc(C#N)c(S(C)(=O)=O)c2)CCN1Cc1ccc(C(F)(F)F)cc1 [46-9, (S)-4-(3-isopropyl-4-(4-(trifluoromethyl)benzyl)piperazin-1-yl)-2-(methylsulfonyl)benzonitrile]",2479 (57) %,,> 3330 nM,1080 nM,1078 (49) %,231 nM,2480 nM,,
"C[C@@H](c1ccc(C(F)(F)F)cc1)N1CCN(c2cccc(S(C)(=O)=O)c2)C[C@H]1c1ccccc1 [46-17, (R)-4-(3-(methylsulfonyl)phenyl)-2-phenyl-1-((S)-1-(4-(trifluoromethyl)phenyl)ethyl)piperazine]",,> 20000 nM,> 3330 nM,> 20000 nM,,,,> 2500 nM,
"C[C@H](c1ccc(C(F)(F)F)cc1)N1CCN(c2cccc(S(C)(=O)=O)c2)C[C@H]1c1ccccc1 [46-19, (R)-4-(3-(methylsulfonyl)phenyl)-2-phenyl-1-((R)-1-(4-(trifluoromethyl)phenyl)ethyl)piperazine]",,> 20000 nM,> 3330 nM,4350 nM,,,,1900 nM,4348 (6) %
"C[C@](O)(c1ccc(CN2CCN(c3cccc(S(C)(=O)=O)c3)C[C@H]2c2ccccc2)cc1)C(F)(F)F [46-29, (S)-1,1,1-trifluoro-2-(4-(((R)-4-(3-(methylsulfonyl)phenyl)-2-phenylpiperazin-1-yl)methyl)phenyl)propan-2-ol]",,> 20000 nM,6320 nM,> 20000 nM,,,,1860 nM,
"C[C@@](O)(c1ccc(CN2CCN(c3cccc(S(C)(=O)=O)c3)C[C@@H]2c2ccccc2)cc1)C(F)(F)F [46-31, (R)-1,1,1-trifluoro-2-(4-(((S)-4-(3-(methylsulfonyl)phenyl)-2-phenylpiperazin-1-yl)methyl)phenyl)propan-2-ol]",,> 20000 nM,6560 nM,> 20000 nM,,,,2170 nM,
"CC(C)[C@H]1CN(c2cccc(S(C)(=O)=O)c2)CCN1Cc1ccc(C(F)(F)F)nc1 [46-41, (S)-2-isopropyl-4-(3-(methylsulfonyl)phenyl)-1-((6-(trifluoromethyl)pyridin-3-yl)methyl)piperazine]",2425 (60) %,,1310 nM,559 nM,559 (68) %,161 nM,2420 nM,,
"CC(C)[C@H]1CN(c2ccc(CO)c(S(C)(=O)=O)c2)CCN1Cc1ccc(C(F)(F)F)cc1 [47-2, (S)-(4-(3-isopropyl-4-(4-(trifluoromethyl)benzyl)piperazin-1-yl)-2-(methylsulfonyl)phenyl)methanol]",455 (70) %,455 nM,119 nM,159 nM,,27 nM,,,159 (65) %
"CC(C)[C@H]1CN(c2ccc(CO)c(S(C)(=O)=O)c2)CCN1Cc1ccc(C(F)(F)F)o1 [47-5, (S)-(4-(3-isopropyl-4-((5-(trifluoromethyl)furan-2-yl)methyl)piperazin-1-yl)-2-(methylsulfonyl)phenyl)methanol]",1187 (62) %,1190 nM,1090 nM,248 nM,,109 nM,,,248 (50) %

# From patent US10144715B2, “Piperazine derivatives as liver X receptor modulators” (priority 2014, dated 2018)
